In ChEMBL document CHEMBL1201862, “PubChem BioAssay data set” (2004):
Active and inactive are the calls of the source.

How the values were obtained:
[1] = target: T1, Sentrin-specific protease 7 (Homo sapiens, UniProt Q9BQF6); type: functional;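 also: Luminescence-based dose-response confirmation of ultra-high-throughput screening hits, measuring inhibition of SENP7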
T1 sequence (Q9BQF6 whole entry): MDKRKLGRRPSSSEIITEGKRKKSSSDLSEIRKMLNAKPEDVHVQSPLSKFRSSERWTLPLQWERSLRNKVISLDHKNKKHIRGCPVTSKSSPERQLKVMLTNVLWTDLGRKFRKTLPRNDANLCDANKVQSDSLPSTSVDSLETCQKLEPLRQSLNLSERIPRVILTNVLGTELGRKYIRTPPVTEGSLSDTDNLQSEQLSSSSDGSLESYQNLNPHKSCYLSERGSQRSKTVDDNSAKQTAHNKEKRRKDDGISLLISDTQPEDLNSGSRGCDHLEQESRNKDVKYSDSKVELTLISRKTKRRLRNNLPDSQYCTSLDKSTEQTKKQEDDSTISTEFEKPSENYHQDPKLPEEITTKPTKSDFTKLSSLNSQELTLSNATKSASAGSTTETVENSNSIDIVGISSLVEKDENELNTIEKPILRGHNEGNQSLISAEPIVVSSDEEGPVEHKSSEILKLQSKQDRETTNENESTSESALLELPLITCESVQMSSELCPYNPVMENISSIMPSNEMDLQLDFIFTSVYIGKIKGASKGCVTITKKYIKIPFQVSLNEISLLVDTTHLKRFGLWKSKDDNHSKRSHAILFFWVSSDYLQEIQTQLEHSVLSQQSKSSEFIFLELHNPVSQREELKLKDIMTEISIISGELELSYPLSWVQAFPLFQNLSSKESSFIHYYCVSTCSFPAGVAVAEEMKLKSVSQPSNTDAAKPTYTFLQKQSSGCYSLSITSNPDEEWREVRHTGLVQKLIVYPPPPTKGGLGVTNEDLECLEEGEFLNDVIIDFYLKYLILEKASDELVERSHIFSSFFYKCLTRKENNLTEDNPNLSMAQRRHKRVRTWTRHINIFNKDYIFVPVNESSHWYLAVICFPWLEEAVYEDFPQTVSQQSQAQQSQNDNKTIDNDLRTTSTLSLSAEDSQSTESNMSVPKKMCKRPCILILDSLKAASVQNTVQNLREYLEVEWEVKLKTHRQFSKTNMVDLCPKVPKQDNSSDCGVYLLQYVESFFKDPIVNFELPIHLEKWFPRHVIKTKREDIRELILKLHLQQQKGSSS

[2] = target: T2, Sentrin-specific protease 8 (Homo sapiens, UniProt Q96LD8); type: functional;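 also: luminescence read-out of SENP8 inhibition, dose-response confirmation following an ultra-high-throughput screen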
T2 sequence (Q96LD8 whole entry): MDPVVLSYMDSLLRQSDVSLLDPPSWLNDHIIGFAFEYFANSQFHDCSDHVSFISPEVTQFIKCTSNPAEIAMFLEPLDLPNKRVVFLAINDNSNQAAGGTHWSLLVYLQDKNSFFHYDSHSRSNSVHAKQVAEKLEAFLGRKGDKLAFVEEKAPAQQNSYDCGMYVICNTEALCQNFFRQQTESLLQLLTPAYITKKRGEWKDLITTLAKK

Cytochrome P450 1A2 = target: T3, Cytochrome P450 1A2 (Homo sapiens, UniProt P05177);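 also: PubChem cytochrome P450 panel assay, CYP1A2 panel member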
T3 sequence (P05177 whole entry): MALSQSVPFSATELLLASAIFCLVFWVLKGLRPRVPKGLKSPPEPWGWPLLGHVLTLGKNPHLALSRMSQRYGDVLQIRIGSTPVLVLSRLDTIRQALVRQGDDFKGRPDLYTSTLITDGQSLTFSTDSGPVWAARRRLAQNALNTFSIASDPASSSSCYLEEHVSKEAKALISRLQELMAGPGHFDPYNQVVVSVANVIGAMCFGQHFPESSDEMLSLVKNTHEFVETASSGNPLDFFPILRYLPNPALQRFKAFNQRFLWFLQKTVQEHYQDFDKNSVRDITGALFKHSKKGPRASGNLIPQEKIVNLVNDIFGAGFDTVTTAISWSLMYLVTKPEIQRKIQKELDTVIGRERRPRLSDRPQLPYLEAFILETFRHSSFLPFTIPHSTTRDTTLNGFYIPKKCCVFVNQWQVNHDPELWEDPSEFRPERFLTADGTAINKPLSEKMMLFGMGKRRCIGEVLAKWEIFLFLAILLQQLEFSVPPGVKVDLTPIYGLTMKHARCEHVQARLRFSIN

[3] = general cell-killing toxicity readout – plate reader, dry powder samples, cytotoxicity control for PAX8 inhibitor project, dose response (AID 743021); type: functional, cell-based
[4] = target: Histone-lysine N-methyltransferase NSD2 (Homo sapiens, UniProt O96028); type: biochemical
[5] = loss of viability in HepG2 cells – cell-based, CellTiter-Glo, cherry-picked, cytotoxicity control for Shn3 inhibitor project, dose response (AID 624134); type: functional
[6] = target: Homeodomain-interacting protein kinase 4 (Homo sapiens, UniProt Q8NE63); type: functional
Chain of Homeodomain-interacting protein kinase 4 (Q8NE63 whole entry): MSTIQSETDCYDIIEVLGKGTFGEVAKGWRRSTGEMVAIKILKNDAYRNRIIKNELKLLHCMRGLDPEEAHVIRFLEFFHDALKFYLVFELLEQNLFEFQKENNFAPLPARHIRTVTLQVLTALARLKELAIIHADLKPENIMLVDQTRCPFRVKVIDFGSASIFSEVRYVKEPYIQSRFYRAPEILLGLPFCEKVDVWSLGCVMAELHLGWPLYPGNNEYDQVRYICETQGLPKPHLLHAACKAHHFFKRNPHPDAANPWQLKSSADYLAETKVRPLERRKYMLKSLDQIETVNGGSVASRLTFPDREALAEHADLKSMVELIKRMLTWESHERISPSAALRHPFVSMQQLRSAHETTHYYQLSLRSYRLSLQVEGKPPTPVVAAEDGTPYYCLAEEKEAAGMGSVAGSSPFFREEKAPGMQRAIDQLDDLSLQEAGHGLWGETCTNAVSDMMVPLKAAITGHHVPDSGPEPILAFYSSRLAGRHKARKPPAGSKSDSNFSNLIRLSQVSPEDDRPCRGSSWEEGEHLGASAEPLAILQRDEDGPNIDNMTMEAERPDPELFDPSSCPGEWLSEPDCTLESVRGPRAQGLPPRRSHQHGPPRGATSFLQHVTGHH

[7] = target: Mitogen-activated protein kinase 14 (Homo sapiens, UniProt Q16539); type: functional;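 also: part of a kinome-wide panel, MAPK14 entry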
Chain of Mitogen-activated protein kinase 14 (Q16539 whole entry): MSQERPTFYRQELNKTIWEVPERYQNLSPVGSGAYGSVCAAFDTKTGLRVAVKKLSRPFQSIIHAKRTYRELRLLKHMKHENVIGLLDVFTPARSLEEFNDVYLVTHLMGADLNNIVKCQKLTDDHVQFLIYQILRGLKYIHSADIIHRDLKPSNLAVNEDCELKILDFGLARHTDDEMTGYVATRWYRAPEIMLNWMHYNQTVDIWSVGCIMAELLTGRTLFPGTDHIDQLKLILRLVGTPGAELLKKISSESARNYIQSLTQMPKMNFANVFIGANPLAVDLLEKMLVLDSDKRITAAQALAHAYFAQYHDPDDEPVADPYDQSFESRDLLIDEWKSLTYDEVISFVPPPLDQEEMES

[8] = target: Dual specificity mitogen-activated protein kinase kinase 2 (Homo sapiens, UniProt P36507); assay: Navigating the Kinome. Panel member name: MAP2K2; type: functional
Chain of Dual specificity mitogen-activated protein kinase kinase 2 (P36507 whole entry): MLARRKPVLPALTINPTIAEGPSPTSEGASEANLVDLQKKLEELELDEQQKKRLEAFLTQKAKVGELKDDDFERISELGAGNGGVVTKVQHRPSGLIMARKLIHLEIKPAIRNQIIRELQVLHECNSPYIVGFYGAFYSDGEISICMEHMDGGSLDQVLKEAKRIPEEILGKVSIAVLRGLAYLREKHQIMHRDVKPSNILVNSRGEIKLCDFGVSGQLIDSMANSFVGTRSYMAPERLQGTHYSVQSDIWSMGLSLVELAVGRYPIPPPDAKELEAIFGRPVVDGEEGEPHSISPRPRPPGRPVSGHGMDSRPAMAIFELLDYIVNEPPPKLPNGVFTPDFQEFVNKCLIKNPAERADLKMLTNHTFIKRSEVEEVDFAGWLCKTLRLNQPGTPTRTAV

[9] = target: Mitogen-activated protein kinase 9 (Homo sapiens, UniProt P45984); type: functional;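 also: value from a kinome panel profiling assay, MAPK9 panel entry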
Chain of Mitogen-activated protein kinase 9 (P45984 whole entry): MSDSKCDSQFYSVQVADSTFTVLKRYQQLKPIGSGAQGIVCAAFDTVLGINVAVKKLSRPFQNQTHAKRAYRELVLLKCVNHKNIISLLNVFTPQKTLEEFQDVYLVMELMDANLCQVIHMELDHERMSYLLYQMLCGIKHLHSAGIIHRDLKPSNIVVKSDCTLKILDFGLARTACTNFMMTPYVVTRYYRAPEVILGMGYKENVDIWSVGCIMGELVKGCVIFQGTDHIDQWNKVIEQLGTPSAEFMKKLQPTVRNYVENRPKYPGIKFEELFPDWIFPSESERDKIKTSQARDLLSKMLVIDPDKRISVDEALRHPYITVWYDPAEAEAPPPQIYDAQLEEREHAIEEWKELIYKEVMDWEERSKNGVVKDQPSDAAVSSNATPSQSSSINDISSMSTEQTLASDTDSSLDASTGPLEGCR

[10] = target: Vascular endothelial growth factor receptor 3 (Homo sapiens, UniProt P35916); type: functional;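 also: value from a kinome-wide profiling panel, with FLT4 as the panel member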
Chain of Vascular endothelial growth factor receptor 3 (P35916 whole entry): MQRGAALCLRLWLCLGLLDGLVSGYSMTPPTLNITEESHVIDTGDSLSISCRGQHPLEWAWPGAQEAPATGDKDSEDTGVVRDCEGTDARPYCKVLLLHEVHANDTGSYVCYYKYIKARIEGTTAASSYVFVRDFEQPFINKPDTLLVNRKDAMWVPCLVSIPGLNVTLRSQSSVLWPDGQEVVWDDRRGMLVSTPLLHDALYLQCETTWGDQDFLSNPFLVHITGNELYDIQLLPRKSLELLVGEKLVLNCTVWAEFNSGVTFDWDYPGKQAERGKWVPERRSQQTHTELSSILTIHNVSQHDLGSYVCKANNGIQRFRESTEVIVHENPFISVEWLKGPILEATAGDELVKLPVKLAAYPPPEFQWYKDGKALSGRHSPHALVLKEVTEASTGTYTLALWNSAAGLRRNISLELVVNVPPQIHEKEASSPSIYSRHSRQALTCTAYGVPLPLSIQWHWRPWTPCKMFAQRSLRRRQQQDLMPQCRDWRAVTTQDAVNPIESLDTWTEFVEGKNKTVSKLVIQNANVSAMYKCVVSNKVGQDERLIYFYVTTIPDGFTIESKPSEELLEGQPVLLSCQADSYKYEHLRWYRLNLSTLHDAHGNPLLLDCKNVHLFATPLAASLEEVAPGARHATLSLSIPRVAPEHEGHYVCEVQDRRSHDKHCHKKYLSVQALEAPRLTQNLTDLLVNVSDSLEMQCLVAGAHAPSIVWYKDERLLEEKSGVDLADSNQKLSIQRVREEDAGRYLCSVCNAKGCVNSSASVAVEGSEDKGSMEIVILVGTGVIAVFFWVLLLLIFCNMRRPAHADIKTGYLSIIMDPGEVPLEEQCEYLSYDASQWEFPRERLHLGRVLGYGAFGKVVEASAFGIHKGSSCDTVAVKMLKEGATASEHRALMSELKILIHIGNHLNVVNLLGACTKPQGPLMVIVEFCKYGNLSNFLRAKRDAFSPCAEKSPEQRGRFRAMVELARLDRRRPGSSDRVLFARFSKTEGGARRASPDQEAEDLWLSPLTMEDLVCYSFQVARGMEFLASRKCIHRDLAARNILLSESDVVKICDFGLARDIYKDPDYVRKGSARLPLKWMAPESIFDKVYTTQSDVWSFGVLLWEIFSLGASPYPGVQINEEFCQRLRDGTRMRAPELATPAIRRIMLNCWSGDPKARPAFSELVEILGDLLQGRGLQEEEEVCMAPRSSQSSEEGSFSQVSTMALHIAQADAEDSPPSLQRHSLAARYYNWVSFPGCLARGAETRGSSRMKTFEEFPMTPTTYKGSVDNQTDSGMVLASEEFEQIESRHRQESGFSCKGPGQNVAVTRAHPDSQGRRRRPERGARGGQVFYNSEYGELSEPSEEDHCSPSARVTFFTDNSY

[11] = target: T4, Interleukin-1 receptor-associated kinase 4 (Homo sapiens, UniProt Q9NWZ3); type: functional
T4 sequence (Q9NWZ3 whole entry): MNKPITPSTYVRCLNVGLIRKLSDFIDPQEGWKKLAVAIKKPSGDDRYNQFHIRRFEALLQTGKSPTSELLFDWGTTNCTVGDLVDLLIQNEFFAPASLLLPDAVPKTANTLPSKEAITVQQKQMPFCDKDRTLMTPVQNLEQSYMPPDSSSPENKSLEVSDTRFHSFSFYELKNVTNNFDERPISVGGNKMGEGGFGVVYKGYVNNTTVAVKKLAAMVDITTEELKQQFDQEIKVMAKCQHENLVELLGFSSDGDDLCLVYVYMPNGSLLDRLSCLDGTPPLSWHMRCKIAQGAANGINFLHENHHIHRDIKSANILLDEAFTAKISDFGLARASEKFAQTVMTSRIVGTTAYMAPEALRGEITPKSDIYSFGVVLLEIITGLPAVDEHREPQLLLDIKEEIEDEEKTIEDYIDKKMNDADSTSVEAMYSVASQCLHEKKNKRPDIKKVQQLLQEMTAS

[12] = target: High affinity nerve growth factor receptor (Homo sapiens, UniProt P04629); type: functional;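 also: NTRK1 tested as one member of a kinome-wide profiling panel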
Chain of High affinity nerve growth factor receptor (P04629 whole entry): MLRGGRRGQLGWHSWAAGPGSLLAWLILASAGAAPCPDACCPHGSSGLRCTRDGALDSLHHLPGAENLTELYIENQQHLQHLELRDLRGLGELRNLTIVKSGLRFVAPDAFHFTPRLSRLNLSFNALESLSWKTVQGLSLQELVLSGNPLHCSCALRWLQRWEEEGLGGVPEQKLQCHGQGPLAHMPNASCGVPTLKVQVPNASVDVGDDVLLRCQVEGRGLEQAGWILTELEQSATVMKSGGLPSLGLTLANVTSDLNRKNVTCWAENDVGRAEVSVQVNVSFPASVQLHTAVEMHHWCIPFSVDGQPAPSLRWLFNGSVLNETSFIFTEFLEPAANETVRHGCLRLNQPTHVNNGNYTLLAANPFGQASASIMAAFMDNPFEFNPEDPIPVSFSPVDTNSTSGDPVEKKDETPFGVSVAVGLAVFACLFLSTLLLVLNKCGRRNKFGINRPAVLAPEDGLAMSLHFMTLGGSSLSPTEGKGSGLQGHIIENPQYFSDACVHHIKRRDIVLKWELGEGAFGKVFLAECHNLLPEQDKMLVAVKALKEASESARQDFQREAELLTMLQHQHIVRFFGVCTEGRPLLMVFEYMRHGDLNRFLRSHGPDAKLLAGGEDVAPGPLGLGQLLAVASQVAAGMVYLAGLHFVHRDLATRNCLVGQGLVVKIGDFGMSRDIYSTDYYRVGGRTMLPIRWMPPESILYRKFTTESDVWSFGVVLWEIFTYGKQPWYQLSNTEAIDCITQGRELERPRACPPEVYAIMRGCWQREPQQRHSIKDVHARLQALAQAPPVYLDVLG

[13] = target: cAMP-dependent protein kinase catalytic subunit alpha (Homo sapiens, UniProt P17612); type: functional
[14] = target: Tyrosine-protein kinase Blk (Homo sapiens, UniProt P51451); type: functional;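 also: obtained as one member of a kinome-wide kinase assay panel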
Chain of Tyrosine-protein kinase Blk (P51451 whole entry): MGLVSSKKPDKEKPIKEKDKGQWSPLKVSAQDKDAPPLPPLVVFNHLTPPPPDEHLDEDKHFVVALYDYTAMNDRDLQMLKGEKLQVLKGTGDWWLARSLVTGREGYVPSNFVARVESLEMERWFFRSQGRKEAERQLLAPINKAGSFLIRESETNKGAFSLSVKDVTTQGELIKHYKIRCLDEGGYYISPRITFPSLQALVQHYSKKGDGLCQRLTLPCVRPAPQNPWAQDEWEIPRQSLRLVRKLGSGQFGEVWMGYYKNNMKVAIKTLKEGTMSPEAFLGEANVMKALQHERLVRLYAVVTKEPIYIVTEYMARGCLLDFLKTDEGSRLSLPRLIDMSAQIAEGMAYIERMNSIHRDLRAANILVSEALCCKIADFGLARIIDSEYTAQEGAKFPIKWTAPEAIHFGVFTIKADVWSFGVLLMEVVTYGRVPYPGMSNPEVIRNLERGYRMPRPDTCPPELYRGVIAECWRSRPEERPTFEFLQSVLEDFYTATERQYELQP

[15] = target: Tyrosine-protein kinase FRK (Homo sapiens, UniProt P42685); type: functional;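 also: FRK tested as one member of a kinome panel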
Chain of Tyrosine-protein kinase FRK (P42685 whole entry): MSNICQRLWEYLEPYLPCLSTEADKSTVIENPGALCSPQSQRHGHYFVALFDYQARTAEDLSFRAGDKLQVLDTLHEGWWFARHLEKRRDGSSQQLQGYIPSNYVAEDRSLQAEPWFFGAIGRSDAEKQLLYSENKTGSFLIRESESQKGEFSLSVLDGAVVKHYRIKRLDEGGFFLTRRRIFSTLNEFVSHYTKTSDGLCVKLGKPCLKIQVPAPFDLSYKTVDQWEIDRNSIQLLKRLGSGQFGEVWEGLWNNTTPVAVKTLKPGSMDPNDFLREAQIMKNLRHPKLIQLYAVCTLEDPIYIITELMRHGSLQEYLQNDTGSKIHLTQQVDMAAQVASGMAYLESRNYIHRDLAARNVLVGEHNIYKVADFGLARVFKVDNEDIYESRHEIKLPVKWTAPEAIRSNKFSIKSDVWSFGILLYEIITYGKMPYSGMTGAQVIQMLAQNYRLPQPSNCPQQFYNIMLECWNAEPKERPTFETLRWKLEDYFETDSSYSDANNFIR

For `CC(C)c1ccc(-c2nnn(CCC(=O)O)n2)cc1`, the IC50 [1] was 7.22 µM (active), the IC50 [2] was 7.27 µM (active) and the AC50 (Cytochrome P450 1A2) was 12.6 µM (inconclusive).
For `CCn1nc(/C=C/c2ccccc2)nc2c(=O)n(C)c(=O)nc1-2`, the AC50 [3] was 12.7 µM (active), the AC50 [4] was 0.0879 µM (active) and the AC50 [5] was 12 µM (active).
For `COc1cc2c(cc1Nc1nc(Nc3cccc(F)c3C(N)=O)c3cc[nH]c3n1)N(C(=O)CN(C)C)CC2`, the Ki [6] was 6.31 µM (active), the Ki [7] was > 3.98 µM (inactive) and the Ki [8] was > 3.98 µM (inactive). For the same compound, the Ki [9] was 0.631 µM (active), the Ki [10] was > 6.31 µM (inactive) and the Ki [11] was 10 µM (active). For the same compound, the Ki [12] was > 3.16 µM (inactive), the Ki [13] was > 1.26 µM (inactive) and the Ki [14] was > 1.58 µM (inactive). The Ki [15] was > 2.51 µM (inactive).
